# Measurements from article PMC11335189, “Revealing molecular determinants governing mambalgin-3 pharmacology at acid-sensing ion channel 1 variants” (Cellular and Molecular Life Sciences: CMLS, 2024).
# Positions of bridges follow the written chain, without caps; N, C: chain ends. No end group written: not given here.
# Tests used:
# [1] = biological target: T1, hASIC1a (Homo sapiens, UniProt P78348); experiment: TEVC in Xenopus laevis oocytes expressing hASIC1a; assay type: cell-based; details: for loss of potency relative to wild-type Ma-3: conditioning pH 7.45, stimulating pH 6
# T1 construct: expressed in transfected cells; host or cells: Xenopus laevis oocytes (cRNA injection)
# T1 sequence (P78348 1-528): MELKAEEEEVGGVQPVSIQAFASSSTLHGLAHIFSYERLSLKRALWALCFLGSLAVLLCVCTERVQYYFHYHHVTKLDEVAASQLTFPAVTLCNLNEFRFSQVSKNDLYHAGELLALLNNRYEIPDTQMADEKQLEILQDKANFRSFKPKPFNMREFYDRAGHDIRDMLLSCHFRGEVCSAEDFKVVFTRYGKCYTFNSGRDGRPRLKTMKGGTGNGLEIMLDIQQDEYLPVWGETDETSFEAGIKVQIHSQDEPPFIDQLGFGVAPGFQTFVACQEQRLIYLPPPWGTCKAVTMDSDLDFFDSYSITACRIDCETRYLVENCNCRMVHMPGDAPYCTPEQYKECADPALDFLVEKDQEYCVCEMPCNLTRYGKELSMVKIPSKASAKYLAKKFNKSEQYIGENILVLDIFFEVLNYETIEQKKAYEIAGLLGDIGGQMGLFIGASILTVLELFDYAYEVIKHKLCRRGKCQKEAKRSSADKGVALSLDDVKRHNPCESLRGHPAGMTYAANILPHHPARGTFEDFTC
# Procedure: Two-electrode voltage-clamp (TEVC) experiments using Xenopus laevis oocytes were conducted as previously described. Briefly, oocytes were surgically removed from anaesthetised female frogs, then treated with collagenase (~ 1 mg/ml, Sigma type I) for 2 h under agitation at room temperature. cRNAs were synthesised using a mMessage mMachine T7 or SP6 transcription kit (Thermo Fisher Scientific Australia Pty Ltd, Scoresby, VIC, Australia) and injected into healthy stage V–VI oocytes at 0.2–20 ng per cell. Different amounts of RNA were used for different wild-type and mutant constructs, as well as to titrate expression levels to record over multiple days and maintaining consistent expression levels. Injected oocytes were incubated at 17 °C for 1–7 days in 50% Leibovitz’s L-15 medium (Gibco, Thermo Fisher Scientific Australia Pty Ltd, Scoresby, VIC, Australia), supplemented with 25 µg/mL gentamicin, 25 µg/mL streptomycin, and 2.5% fetal horse serum. Membrane currents were recorded 2–7 days after cRNA-injection under voltage-clamp at -60 mV (Axon Axoclamp 900 A, Molecular Devices, CA, USA) using two standard glass microelectrodes of 0.5–1 MΩ resistance when filled with 3 M KCl solution. Data were sampled at 2 kHz and filtered at 0.1 kHz using Clampex 10 software (Molecular Devices, CA, USA). […]
# Specific to this work, the standard protocol was for oocytes to be conditioned at pH 7.45 and channels stimulated every 60 s using a 5 s pH 5 or 6 application, unless stated otherwise. […] Activation curves were determined by conditioning oocytes at pH 8 (Fig. 2e − g; and Fig. 5a and b) or 7.45 (Fig. 6; and Supplementary Fig. 2d and c) for 55 s and applying low pH stimuli from 7.25 to 5.0 for 5 s. Steady-state desensitisation (SSD) was determined by applying conditioning solutions of pH values from 8 to 6 for 115 s prior to stimulation by a pH drop to 5 for 5 s. […] Control pH-dependence curves were determined in the absence of any Ma-3. […]
# Data were analysed using pCLAMP-Clampfit software (Version 11, Molecular Devices, CA, USA) and GraphPad Prism 9.5 and 10.2.2 (GraphPad Software, San Diego, CA, USA). […]
# [2] = biological target: T2, rASIC1a S83T/Q84E/R175C/E177G (SQRE) (Rattus norvegicus, UniProt P55926, E177G/Q84E/R175C/S83T); experiment: TEVC oocytes, rASIC1a quadruple mutant SQRE; assay type: cell-based; details: for remaining activity at 0.3 µM: 300 nM peptide, conditioning pH 7.45, stimulating pH 6, read-out: I/Icontrol
# T2 construct: expressed in transfected cells; host or cells: Xenopus laevis oocytes (cRNA injection)
# T2 sequence (P55926 1-526 S83T/Q84E/R175C/E177G): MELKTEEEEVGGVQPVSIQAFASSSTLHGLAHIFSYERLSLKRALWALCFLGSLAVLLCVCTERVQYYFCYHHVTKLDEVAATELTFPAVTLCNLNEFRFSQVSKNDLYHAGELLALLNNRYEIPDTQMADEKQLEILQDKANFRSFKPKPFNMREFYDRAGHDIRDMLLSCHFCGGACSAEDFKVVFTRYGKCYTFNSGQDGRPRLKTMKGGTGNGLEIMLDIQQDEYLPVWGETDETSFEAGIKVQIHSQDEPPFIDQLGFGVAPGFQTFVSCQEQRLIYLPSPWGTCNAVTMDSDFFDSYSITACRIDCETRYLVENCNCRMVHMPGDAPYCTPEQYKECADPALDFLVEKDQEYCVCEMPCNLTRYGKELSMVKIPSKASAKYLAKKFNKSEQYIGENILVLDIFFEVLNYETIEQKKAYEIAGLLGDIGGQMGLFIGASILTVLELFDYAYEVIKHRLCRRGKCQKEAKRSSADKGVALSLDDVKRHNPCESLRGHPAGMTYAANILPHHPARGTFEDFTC
# Procedure: Two-electrode voltage-clamp (TEVC) experiments using Xenopus laevis oocytes were conducted as previously described. Briefly, oocytes were surgically removed from anaesthetised female frogs, then treated with collagenase (~ 1 mg/ml, Sigma type I) for 2 h under agitation at room temperature. cRNAs were synthesised using a mMessage mMachine T7 or SP6 transcription kit (Thermo Fisher Scientific Australia Pty Ltd, Scoresby, VIC, Australia) and injected into healthy stage V–VI oocytes at 0.2–20 ng per cell. Different amounts of RNA were used for different wild-type and mutant constructs, as well as to titrate expression levels to record over multiple days and maintaining consistent expression levels. Injected oocytes were incubated at 17 °C for 1–7 days in 50% Leibovitz’s L-15 medium (Gibco, Thermo Fisher Scientific Australia Pty Ltd, Scoresby, VIC, Australia), supplemented with 25 µg/mL gentamicin, 25 µg/mL streptomycin, and 2.5% fetal horse serum. Membrane currents were recorded 2–7 days after cRNA-injection under voltage-clamp at -60 mV (Axon Axoclamp 900 A, Molecular Devices, CA, USA) using two standard glass microelectrodes of 0.5–1 MΩ resistance when filled with 3 M KCl solution. Data were sampled at 2 kHz and filtered at 0.1 kHz using Clampex 10 software (Molecular Devices, CA, USA). A microperfusion system was used to allow fast extracellular solution exchange (bath volume = ~ 30 µL). All experiments were performed at room temperature (18–23 °C) in ND96 (96 mM NaCl, 2 mM KCl, 1.8 mM CaCl2, 2 mM MgCl2, 5 mM HEPES, pH 7.45). In solutions below pH 6.8, HEPES was replaced by MES. All solutions containing peptides contained 0.05% fatty acid free bovine serum albumin to decrease adsorptive losses of peptide to plasticware. For all channels tested, control current magnitudes between 500 and 9000 nA when tested using a conditioning pH of 7.45 and stimulating pH of 6 (except for the chimeras that were stimulated with pH 5) were used for data collection. Before recording any experiments, oocytes were stimulated multiple times with low pH to minimise and stabilise tachyphylaxis/desensitisation, which were then accounted for during analysis. Complete recovery of currents from Ma-3 induced modulation within 3 min of washout at all channels tested allowed for correction for tachyphylaxis/desensitisation during analyses.
# Specific to this work, the standard protocol was for oocytes to be conditioned at pH 7.45 and channels stimulated every 60 s using a 5 s pH 5 or 6 application, unless stated otherwise. For all concentration-response data, peptides were applied for ~ 50 s between each low pH stimulus application. Activation curves were determined by conditioning oocytes at pH 8 (Fig. 2e − g; and Fig. 5a and b) or 7.45 (Fig. 6; and Supplementary Fig. 2d and c) for 55 s and applying low pH stimuli from 7.25 to 5.0 for 5 s. Steady-state desensitisation (SSD) was determined by applying conditioning solutions of pH values from 8 to 6 for 115 s prior to stimulation by a pH drop to 5 for 5 s. Ma-3 was only applied in the conditioning solution for activation and steady-state desensitisation curves in the presence of peptide. Control pH-dependence curves were determined in the absence of any Ma-3. When assessing the effect of Ma-3 on the rASIC1a: ASIC1b chimeras (C92 and C166; and for the comparative wild-type data), the conditioning pH was 7.45 and stimulating pH 5 (Fig. 3b). Specific details of the conditioning and stimulating pH are noted in each figure legend.
# Data were analysed using pCLAMP-Clampfit software (Version 11, Molecular Devices, CA, USA) and GraphPad Prism 9.5 and 10.2.2 (GraphPad Software, San Diego, CA, USA). To obtain the Hill coefficient (nH) and half-maximal response (EC50, IC50, or pH50) the Hill equation was fitted to normalised concentration-response curves by using a non-linear fit to the data of a four-parameter logistic equation (“sigmoidal dose-response” in GraphPad Prism 9.5). […]
Substance,loss of potency relative to wild-type Ma-3 [1],remaining activity at 0.3 µM ([2]; n = 5–8) [%],"pH50 of activation in presence of Ma-3 ([1]; 100 nM Ma-3 in the pH 8 conditioning solution, Hill fit, n = 5–6)","shift of the activation curve towards acidic values ([2]; 100 nM Ma-3, conditioning pH 8) [pH units]","slope of activation curve in presence of Ma-3 ([2]; 100 nM Ma-3, conditioning pH 8, mean ± SEM)","change of pH50 of the SSD curve ([2]; 100 nM Ma-3, stimulating pH 5)","slope of SSD curve in presence of Ma-3 ([2]; 100 nM Ma-3, stimulating pH 5, mean ± SEM)","pH50 of activation in presence of Ma-3 ([2]; 100 nM Ma-3 in conditioning solution, conditioning pH 8, Hill fit, mean ± SEM, n = 5–8)","pH50 of steady-state desensitisation (SSD) in presence of Ma-3 ([2]; 100 nM Ma-3 in conditioning solution, stimulating pH 5, Hill fit, mean ± SEM, n = 5–8)"
"H-SLKCYQHGAVVTCHRDMKFCYHNIGMPFRNLKLILQGCSSSCSETENNKCCSTDRCNK (disulfide 4-20, 13-38, 42-50, 51-56 (inferred)) [K8A]",~ 4 fold,65,,,,,,,
"H-SLKCYQHGKVVTCHRDAKFCYHNIGMPFRNLKLILQGCSSSCSETENNKCCSTDRCNK (disulfide 4-20, 13-38, 42-50, 51-56 (inferred)) [M16A]",no change,56,,,,,,,
"H-SLKCYQHGKVVTCHRDMKFCYHNIGMPFRNLKLILQGCSSSCSETENNKCCSTDRCNK (disulfide 4-20, 13-38, 42-50, 51-56 (inferred)) [Ma-3, mambalgin-3]",,48,5.86,0.11,2.68 ± 0.34,remained unchanged,5.47 ± 0.95,6.03 ± 0.02,7.12 ± 0.01
